The source of these data is PubChem BioAssay AID310 (DTP/NCI, 2004).

The assay deals with C3AKF1 mice, osteogenic sarcoma HE10734 s.c., tumor weight T/C. Description: NCI In Vivo Anticancer Drug Screen. Data for tumor model Osteogenic Sarcoma HE 10734 (subcutaneous) in C3AKF1 (CHKRF1) mice. The note with it: endpoint: mean tumor weight, schedule: Q01DX010 (ip), higher = larger tumour. As for the experimental part: The antitumor activity of compounds was measured in mice bearing transplantable tumors. Survival or tumor size were measured and the results are expressed as the measurement made in the treated group (T) divided by the measurement made in the vehicle treated control group (C). The tumor model used in this assay is Osteogenic Sarcoma HE 10734 (subcutaneous) in C3AKF1 (CHKRF1) mice

The mark [1] stands for this setting: dose: 125.0 mg/kg/injection, vehicle: saline.
[2] abbreviates: dose: 250.0 mg/kg/injection, vehicle: saline.
Where [3] appears, read: dose: 500.0 mg/kg/injection, vehicle: saline.
The mark [4] stands for this setting: dose: 1000.0 mg/kg/injection, vehicle: saline.
Where [5] appears, read: dose: 20.0 mg/kg/injection, vehicle: saline.
The mark [6] stands for this setting: dose: 50.0 mg/kg/injection, vehicle: saline.
Where [7] appears, read: dose: 10.0 mg/kg/injection, vehicle: carboxymethylcellulose (CMC).
[8] abbreviates: dose: 15.0 mg/kg/injection, vehicle: saline.
The mark [9] stands for this setting: dose: 23.0 mg/kg/injection, vehicle: saline.
Setting [10] is: dose: 35.0 mg/kg/injection, vehicle: saline.
Setting [11] is: dose: 55.0 mg/kg/injection, vehicle: carboxymethylcellulose (CMC).
Where [12] appears, read: dose: 16.0 mg/kg/injection, vehicle: carboxymethylcellulose (CMC).

“And” between values parts separate entries of the source, which are not always exact repeats. Equal values may be shown once. Inconclusive results are not listed.

For the compound `O=C(Nc1ccc(C2=NCCN2)cc1)c1ccc(C(=O)Nc2ccc(C3=NCCN3)cc2)c(NC(=O)c2ccc(C(=O)Nc3cc(C(=O)Nc4ccc(C5=NCCN5)cc4)ccc3C(=O)Nc3ccc(C4=NCCN4)cc3)cc2)c1`, the T/C by setting is: (dose: 28.0 mg/kg/injection, vehicle: saline) 111 % of control; (dose: 45.0 mg/kg/injection, vehicle: saline) 104 % of control; (dose: 65.0 mg/kg/injection, vehicle: saline) 118 % of control; (dose: 95.0 mg/kg/injection, vehicle: saline) 98 % of control and 107 % of control; (dose: 140.0 mg/kg/injection, vehicle: saline) 93 % of control; (dose: 210.0 mg/kg/injection, vehicle: saline) 89 % of control. The T/C (dose: 315.0 mg/kg/injection, vehicle: saline) was 110 % of control.
In the case of `CS(=O)(=O)OC[C@@H](O)[C@@H](O)COS(C)(=O)=O`, the T/C is, setting by setting: (dose: 62.5 mg/kg/injection, vehicle: carboxymethylcellulose (CMC)) 88 % of control; (dose: 125.0 mg/kg/injection, vehicle: carboxymethylcellulose (CMC)) 53 % of control and 74 % of control; (dose: 500.0 mg/kg/injection, vehicle: carboxymethylcellulose (CMC)) 92 % of control and 109 % of control.
For `Nc1nc(SCc2ccccc2)c2ncn(C3CCCC3)c2n1`, the T/C under setting [1] is 80 % of control, the T/C under setting [2] is 115 % of control, the T/C under setting [3] is 83 % of control and the T/C under setting [4] was 63 % of control.
On to `CN(C)[C@@H]1C(=O)C(C(=O)NCN(CCCl)CCCl)=C(O)[C@@]2(O)C(=O)C3=C(O)c4c(O)cccc4[C@@](C)(O)[C@H]3C[C@@H]12`, for which the T/C (dose: 8.9 mg/kg/injection, vehicle: saline) was 105 % of control; the T/C (dose: 13.0 mg/kg/injection, vehicle: saline) was 84 % of control; the T/C under setting [5] was 94 % of control; the T/C (dose: 30.0 mg/kg/injection, vehicle: saline) was 52 % of control and 69 % of control; the T/C (dose: 44.0 mg/kg/injection, vehicle: saline) was 53 % of control.
On to `CC(C)Sc1nc(N)nc2nc[nH]c12`, for which the T/C is, setting by setting: (dose: 25.0 mg/kg/injection, vehicle: saline) 71 % of control; under setting [6], 83 % of control; (dose: 100.0 mg/kg/injection, vehicle: saline) 76 % of control; (dose: 200.0 mg/kg/injection, vehicle: saline) 23 % of control.
With `CN(C)Nc1ncnc2nc[nH]c12`, the T/C runs as follows: under setting [5], 84 % of control; (dose: 40.0 mg/kg/injection, vehicle: saline) 72 % of control; (dose: 80.0 mg/kg/injection, vehicle: saline) 38 % of control.
For `CN(C)c1ccc(/C=C\c2ccnc3ccccc23)cc1`, the T/C (dose: 2.5 mg/kg/injection, vehicle: carboxymethylcellulose (CMC)) is 50 % of control; the T/C (dose: 14.0 mg/kg/injection, vehicle: carboxymethylcellulose (CMC)) was 68 % of control; the T/C (dose: 22.0 mg/kg/injection, vehicle: carboxymethylcellulose (CMC)) was 44 % of control; the T/C (dose: 50.0 mg/kg/injection, vehicle: carboxymethylcellulose (CMC)) was 48 % of control; the T/C (dose: 75.0 mg/kg/injection, vehicle: carboxymethylcellulose (CMC)) was 27 % of control; the T/C (dose: 100.0 mg/kg/injection, vehicle: carboxymethylcellulose (CMC)) was 67 % of control.
Turning to `CSc1ncc(Br)c(Sc2nc(N)nc3nc[nH]c23)n1`, the T/C by setting is: (dose: 1.5 mg/kg/injection, vehicle: carboxymethylcellulose (CMC)) 103 % of control; (dose: 3.0 mg/kg/injection, vehicle: carboxymethylcellulose (CMC)) 87 % of control; (dose: 6.0 mg/kg/injection, vehicle: carboxymethylcellulose (CMC)) 55 % of control; (dose: 12.0 mg/kg/injection, vehicle: carboxymethylcellulose (CMC)) 77 % of control.
Regarding `CC1(C)N=C(N)N=C(N)N1c1cccc(Br)c1`, the T/C (dose: 4.4 mg/kg/injection, vehicle: carboxymethylcellulose (CMC)) was 89 % of control; the T/C (dose: 6.6 mg/kg/injection, vehicle: carboxymethylcellulose (CMC)) is 102 % of control; the T/C under setting [7] was 50 % of control and 51 % of control.
`CCCC(=O)NC1=C(N2CC2)C(=O)C(NC(=O)CCC)=C(N2CC2)C1=O`: the T/C is 104 % of control (dose: 0.5 mg/kg/injection, vehicle: saline); 72 % of control (dose: 0.75 mg/kg/injection, vehicle: saline); 83 % of control (dose: 1.1 mg/kg/injection, vehicle: saline); 47 % of control and 60 % of control (dose: 1.7 mg/kg/injection, vehicle: saline).
For `C=CC(=O)NCNC(=O)C=C`, the T/C is 66 % of control (dose: 37.5 mg/kg/injection, vehicle: saline) and 65 % of control (dose: 75.0 mg/kg/injection, vehicle: saline).
`CCCCn1cnc2c(=S)nc(N)[nH]c21`: the T/C reads like this: (dose: 3.0 mg/kg/injection, vehicle: saline) 49 % of control; (dose: 6.0 mg/kg/injection, vehicle: saline) 51 % of control; (dose: 11.0 mg/kg/injection, vehicle: saline) 29 % of control; (dose: 22.0 mg/kg/injection, vehicle: saline) 7 % of control.
`NC1(C(=O)O)CCCC1`: the T/C by setting is: under setting [8], 109 % of control; under setting [9], 46 % of control; under setting [10], 77 % of control; under setting [11], 30 % of control and 42 % of control; (dose: 55.0 mg/kg/injection, vehicle: saline) 46 % of control; (dose: 85.0 mg/kg/injection, vehicle: carboxymethylcellulose (CMC)) 27 % of control and 45 % of control.
Take `Nc1nc(SCc2ccc([N+](=O)[O-])cc2)c2[nH]cnc2n1`: the T/C was 86 % of control under setting [1], 89 % of control under setting [2], 58 % of control under setting [3] and 59 % of control under setting [4].
As for `CN(N=O)C(N)=O`, the T/C runs as follows: under setting [7], 47 % of control and 55 % of control; under setting [12], 34 % of control and 39 % of control; (dose: 25.0 mg/kg/injection, vehicle: carboxymethylcellulose (CMC)) 38 % of control.
Consider `CCc1c(CC(=O)O)c2cc(C)ccc2n1Cc1ccc(Cl)cc1`, for which the T/C under setting [6] was 79 % of control.
For `O=C(O)C1(NO)CCCC1`, the T/C is, setting by setting: under setting [8], 88 % of control; under setting [9], 112 % of control; under setting [10], 71 % of control; (dose: 112.0 mg/kg/injection, vehicle: saline) 29 % of control.
For `Cn1cnc([N+](=O)[O-])c1Sc1nc(N)nc2c1ncn2C1OC(CO)C(O)C1O` (stereo not drawn), the T/C (dose: 7.5 mg/kg/injection, vehicle: carboxymethylcellulose (CMC)) is 96 % of control.
Take `C/C=C1\CN(C)[C@H]2Cc3c([nH]c4ccccc34)[C@@H](c3cc4[nH]c5c(c4cc3OC)CCN3C[C@H]4C[C@H](CC)[C@H]3[C@@]5(C(=O)OC)C4)C[C@H]1C2C(=O)OC` (stereo partly drawn): the T/C (dose: 20.0 mg/kg/injection, vehicle: water) was 49 % of control.
For `CS(=O)(=O)OCCCCCCCCCOS(C)(=O)=O`, the T/C (dose: 8.0 mg/kg/injection, vehicle: carboxymethylcellulose (CMC)) is 81 % of control; the T/C under setting [12] is 81 % of control; the T/C (dose: 28.0 mg/kg/injection, vehicle: carboxymethylcellulose (CMC)) was 57 % of control; the T/C under setting [11] was 37 % of control.
